Data from US8012979B2, “Compounds and their uses 707” (AstraZeneca AB, priority 2007, dated 2011).

Molecular target: T1, human active recombinant p38α-6His tagged (Homo sapiens, UniProt Q16539)
T1 construct: 6His
Assay: p38 Alpha Enzyme Assay (AlphaScreen, biotinylated-ATF2 substrate)
Assay type: biochemical
Conditions: pre-incubated 4 hours at 37° C., reaction initiated with ATP; 0.5 nM enzyme; read-out: p38 pIC50 (converted)

T1 sequence (Q16539 whole entry): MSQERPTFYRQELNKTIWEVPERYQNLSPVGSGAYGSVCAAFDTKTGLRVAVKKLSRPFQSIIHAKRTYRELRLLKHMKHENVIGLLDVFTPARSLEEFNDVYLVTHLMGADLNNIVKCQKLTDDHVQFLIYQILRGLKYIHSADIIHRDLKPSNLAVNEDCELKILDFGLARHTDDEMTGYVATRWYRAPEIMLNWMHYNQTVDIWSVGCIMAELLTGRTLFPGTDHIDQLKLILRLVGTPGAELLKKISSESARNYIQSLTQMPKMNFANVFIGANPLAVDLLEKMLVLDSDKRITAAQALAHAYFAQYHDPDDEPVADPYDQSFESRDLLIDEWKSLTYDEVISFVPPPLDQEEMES

IC50 [nM] | Structure (SMILES)
0.251 | Cc1ccc(C(=O)NC2CC2)cc1-c1ccc2c(=O)n(Cc3ccc(C4CCNCC4)cc3)cc(C)c2c1 [Example 97, N-Cyclopropyl-4-methyl-3-(4-methyl-1-oxo-2-(4-(piperidin-4-yl)benzyl)-1,2-dihydroisoquinolin-6-yl)benzamide]
1.26 | Cc1ccc(C(=O)NC2CC2)cc1-c1ccc2c(=O)n(CC3CC3)cc(CN3CCCN(C(C)C)CC3)c2c1 [Example 73, N-Cyclopropyl-3-(2-(cyclopropylmethyl)-4-((4-isopropyl-1,4-diazepan-1-yl)methyl)-1-oxo-1,2-dihydroisoquinolin-6-yl)-4-methylbenzamide]
0.1 | Cc1c(F)cc(C(=O)NC2CC2)cc1-c1ccc2c(=O)n(CC3CC3)cc(CN3CCN[C@@H](C)C3)c2c1 [Example 82, (S)—N-Cyclopropyl-3-(2-(cyclopropylmethyl)-4-((3-methylpiperazin-1-yl)methyl)-1-oxo-1,2-dihydroisoquinolin-6-yl)-5-fluoro-4-methylbenzamide]
0.158 | Cc1ccc(C(=O)NC2CC2)cc1-c1ccc2c(=O)n(CC3CC3)cc(CN3CCC(N)CC3)c2c1 [Example 66, 3-(4-((4-Aminopiperidin-1-yl)methyl)-2-(cyclopropylmethyl)-1-oxo-1,2-dihydroisoquinolin-6-yl)-N-cyclopropyl-4-methylbenzamide]
2 | Cc1ccc(C(=O)NC2CC2)cc1-c1ccc2c(=O)n(Cc3cccc(OCCCN(C)C)c3)cc(C)c2c1 [Example 93, N-Cyclopropyl-3-(2-(3-(3-(dimethylamino)propoxy)benzyl)-4-methyl-1-oxo-1,2-dihydroisoquinolin-6-yl)-4-methylbenzamide]
0.631 | Cc1ccc(C(=O)NC2CC2)cc1-c1ccc2c(=O)n(Cc3ccc(OCCN4CCCC4)nc3)ccc2c1 [Example 31, N-Cyclopropyl-4-methyl-3-(1-oxo-2-((6-(2-(pyrrolidin-1-yl)ethoxy)pyridin-3-yl)methyl)-1,2-dihydroisoquinolin-6-yl)benzamide]
2 | Cc1ccc(C(=O)NC2CC2)cc1-c1ccc2c(=O)n(Cc3cccc(OCCNCCO)c3)ccc2c1 [Example 35, N-Cyclopropyl-3-[2-(3-{2-[(2-hydroxyethyl)amino]ethoxy}benzyl)-1-oxo-1,2-dihydroisoquinolin-6-yl]-4-methylbenzamide]
2.51 | Cc1ccc(C(=O)NC2CC2)cc1-c1ccc2c(=O)n(Cc3ccc(CN(C)C)cc3)cc(C)c2c1 [Example 95, N-Cyclopropyl-3-(2-(4-((dimethylamino)methyl)benzyl)-4-methyl-1-oxo-1,2-dihydroisoquinolin-6-yl)-4-methylbenzamide]
0.126 | Cc1ccc(C(=O)NC2CC2)cc1-c1ccc2c(=O)n(Cc3ccc(S(C)(=O)=O)cc3)cc(CN3CCCN(C)CC3)c2c1 [Example 103, N-Cyclopropyl-4-methyl-3-(4-((4-methyl-1,4-diazepan-1-yl)methyl)-2-(4-(methylsulfonyl)benzyl)-1-oxo-1,2-dihydroisoquinolin-6-yl)benzamide]
3.98 | Cc1ccc(C(=O)NC2CC2)cc1-c1ccc2c(=O)n(CC3CC3)cc(C(=O)NC3CCN(C)CC3)c2c1 [Example 38, 6-(5-(Cyclopropylcarbamoyl)-2-methylphenyl)-2-(cyclopropylmethyl)-N-(1-methylpiperidin-4-yl)-1-oxo-1,2-dihydroisoquinoline-4-carboxamide]
2 | Cc1ccc(C(=O)NC2CC2)cc1-c1ccc2c(=O)n(Cc3ccccc3)cc(C(=O)NCCCN(C)C)c2c1 [Example 51, 2-Benzyl-6-{5-[(cyclopropylamino)carbonyl]-2-methylphenyl}-N-[3-(dimethylamino)propyl]-1-oxo-1,2-dihydroisoquinoline-4-carboxamide]
0.2 | Cc1ccc(C(=O)NC2CC2)cc1-c1ccc2c(=O)n(CC3CC3)cc(CN3CCC(N(C)C)CC3)c2c1 [Example 69, N-Cyclopropyl-3-(2-(cyclopropylmethyl)-4-((4-(dimethylamino)piperidin-1-yl)methyl)-1-oxo-1,2-dihydroisoquinolin-6-yl)-4-methylbenzamide]
0.0631 | Cc1c(F)cc(C(=O)NC2CC2)cc1-c1ccc2c(=O)n(CC3CC3)cc(CN3CCNC[C@H]3CO)c2c1 [Example 108, (S)—N-Cyclopropyl-3-(2-(cyclopropylmethyl)-4-((2-(hydroxymethyl)piperazin-1-yl)methyl)-1-oxo-1,2-dihydroisoquinolin-6-yl)-5-fluoro-4-methylbenzamide]
3.16 | Cc1ccc(C(=O)NC2CC2)cc1-c1ccc2c(=O)n(CC3CC3)cc(COCCN(C)C)c2c1 [Example 101, N-Cyclopropyl-3-(2-(cyclopropylmethyl)-4-((2-(dimethylamino)ethoxy)methyl)-1-oxo-1,2-dihydroisoquinolin-6-yl)-4-methylbenzamide]
0.1 | CNC1CCN(Cc2cn(CC3CC3)c(=O)c3ccc(-c4cc(C(=O)NC5CC5)cc(F)c4C)cc23)CC1 [Example 81, N-Cyclopropyl-3-(2-(cyclopropylmethyl)-4-((4-(methylamino)piperidin-1-yl)methyl)-1-oxo-1,2-dihydroisoquinolin-6-yl)-5-fluoro-4-methylbenzamide]
0.0794 | Cc1c(F)cc(C(=O)NC2CC2)cc1-c1ccc2c(=O)n(Cc3ccc(S(C)(=O)=O)cc3)cc(CN3CCN[C@@H](CO)C3)c2c1 [Example 113, (R)—N-Cyclopropyl-3-fluoro-5-(4-((3-(hydroxymethyl)piperazin-1-yl)methyl)-2-(4-(methylsulfonyl)benzyl)-1-oxo-1,2-dihydroisoquinolin-6-yl)-4-methylbenzamide]
316 | Cc1ccc(C(=O)NC2CC2)cc1-c1ccc2c(=O)n(CCCN3CCCC3)ccc2c1 [Example 13, N-Cyclopropyl-4-methyl-3-[1-oxo-2-(3-pyrrolidin-1-yl-propyl)-1,2-dihydro-isoquinolin-6-yl]-benzamide]
1.58 | Cc1ccc(C(=O)NC2CC2)cc1-c1ccc2c(=O)n(Cc3ccc(OCCCN(C)C)nc3)ccc2c1 [Example 29, N-Cyclopropyl-3-(2-((6-(3-(dimethylamino)propoxy)pyridin-3-yl)methyl)-1-oxo-1,2-dihydroisoquinolin-6-yl)-4-methylbenzamide]
3.16 | Cc1ccc(C(=O)NC2CC2)cc1-c1ccc2c(=O)n(Cc3ccc(C(=O)N(C)CCCN(C)C)cc3)ccc2c1 [Example 21, N-Cyclopropyl-3-(2-(4-((3-(dimethylamino)propyl)(methyl)carbamoyl)benzyl)-1-oxo-1,2-dihydroisoquinolin-6-yl)-4-methylbenzamide]
7.94 | CCN1CCC(CNCc2cn(CC3CC3)c(=O)c3ccc(-c4cc(C(=O)NC5CC5)cc(F)c4C)cc23)CC1 [Example 91, N-Cyclopropyl-3-(2-(cyclopropylmethyl)-4-(((1-ethylpiperidin-4-yl)methylamino)methyl)-1-oxo-1,2-dihydroisoquinolin-6-yl)-5-fluoro-4-methylbenzamide]
2 | CNCCN(C)C(=O)c1ccc(Cn2ccc3cc(-c4cc(C(=O)NC5CC5)ccc4C)ccc3c2=O)cc1 [Example 23, N-Cyclopropyl-4-methyl-3-(2-(4-(methyl(2-(methylamino)ethyl)carbamoyl)benzyl)-1-oxo-1,2-dihydroisoquinolin-6-yl)benzamide]
0.2 | Cc1c(F)cc(C(=O)NC2CC2)cc1-c1ccc2c(=O)n(CC3CC3)cc(CN3CCC(NC(C)C)CC3)c2c1 [Example 84, N-Cyclopropyl-3-(2-(cyclopropylmethyl)-4-((4-(isopropylamino)piperidin-1-yl)methyl)-1-oxo-1,2-dihydroisoquinolin-6-yl)-5-fluoro-4-methylbenzamide]
2 | Cc1ccc(C(=O)NC2CC2)cc1-c1ccc2c(=O)n(Cc3ccccc3)cc(C(=O)N3CC[C@@H](N)C3)c2c1 [Example 53, (R)-3-(4-(3-Aminopyrrolidine-1-carbonyl)-2-benzyl-1-oxo-1,2-dihydroisoquinolin-6-yl)-N-cyclopropyl-4-methylbenzamide]
1 | Cc1ccc(C(=O)NC2CC2)cc1-c1ccc2c(=O)n(Cc3ccc(CNC(C)(C)C)cc3)ccc2c1 [Example 28, 3-(2-(4-((Tert-butylamino)methyl)benzyl)-1-oxo-1,2-dihydroisoquinolin-6-yl)-N-cyclopropyl-4-methylbenzamide]
2.51 | Cc1ccc(C(=O)NC2CC2)cc1-c1ccc2c(=O)n(Cc3ccc(C4CCNCC4)cc3)c(C)cc2c1 [Example 98, N-Cyclopropyl-4-methyl-3-(3-methyl-1-oxo-2-(4-(piperidin-4-yl)benzyl)-1,2-dihydroisoquinolin-6-yl)benzamide]
2 | Cc1ccc(C(=O)NC2CC2)cc1-c1ccc2c(=O)n(Cc3cccc(OCCCN(C)C)c3)ccc2c1 [Example 10, N-Cyclopropyl-3-{2-[3-(3-dimethylamino-propoxy)-benzyl]-1-oxo-1,2-dihydro-isoquinolin-6-yl}-4-methyl-benzamide]
1.58 | Cc1ccc(C(=O)NC2CC2)cc1-c1ccc2c(=O)n(CC3CC3)cc(C(=O)NC3CCNCC3)c2c1 [Example 41, 6-(5-(Cyclopropylcarbamoyl)-2-methylphenyl)-2-(cyclopropylmethyl)-1-oxo-N-(piperidin-4-yl)-1,2-dihydroisoquinoline-4-carboxamide]
5.01 | Cc1ccc(C(=O)NC2CC2)cc1-c1ccc2c(=O)n(CC3CC3)cc(C(=O)N3CCN(C)CC3)c2c1 [Example 39, N-Cyclopropyl-3-(2-(cyclopropylmethyl)-4-(4-methylpiperazine-1-carbonyl)-1-oxo-1,2-dihydroisoquinolin-6-yl)-4-methylbenzamide]
6.31 | Cc1ccc(C(=O)NC2CC2)cc1-c1ccc2c(=O)n(Cc3ccc(C4=CCN(C(=O)OC(C)(C)C)CC4)cc3)ccc2c1 [Example 6, 4-{4-[6-(5-Cyclopropylcarbamoyl-2-methyl-phenyl)-1-oxo-1H-isoquinolin-2-ylmethyl]-phenyl}-3,6-dihydro-2H-pyridine-1-carboxylic acid, tert-butyl ester]
63.1 | Cc1ccc(C(=O)NC2CC2)cc1-c1ccc2c(=O)n(CC3CCNCC3)ccc2c1 [Example 125, N-Cyclopropyl-4-methyl-3-(1-oxo-2-piperidin-4-ylmethyl-1,2-dihydro-isoquinolin-6-yl)-benzamide]
